Reference: US10654834B2 (Venenum Biodesign, LLC, priority 2016, dated 2020)

How the values were obtained:
human TGR5 receptor = molecular target: T1, human TGR5 receptor (Homo sapiens, UniProt Q8TDU6); test: Human TGR5 cAMP production assay (hTGR5-CHO cells, DiscoveRx cAMP XS+ kit); format: cell-based; conditions: luminescent cAMP assay, read-out: Human TGR5 Lum. cAMP Activity (EC50)
T1 construct: host or cells: CHO-K1 (hTGR5-CHO)
T1 sequence (Q8TDU6 1-330): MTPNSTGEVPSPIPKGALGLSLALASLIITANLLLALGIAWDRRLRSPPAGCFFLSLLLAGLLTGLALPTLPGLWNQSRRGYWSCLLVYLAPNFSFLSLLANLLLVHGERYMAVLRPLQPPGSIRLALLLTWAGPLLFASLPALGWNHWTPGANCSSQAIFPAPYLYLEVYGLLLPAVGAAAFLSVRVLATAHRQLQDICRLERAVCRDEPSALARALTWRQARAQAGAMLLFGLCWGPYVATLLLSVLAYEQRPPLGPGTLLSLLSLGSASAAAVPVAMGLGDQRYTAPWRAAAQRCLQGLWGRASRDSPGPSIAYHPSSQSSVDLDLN
Procedure, shortened: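 CHO-K1 cells stably expressing hTGR5, in PBS with IBMX and cAMP antibody, treated with half-log compound dilutions for 1 h at room temperature. cAMP measured by enzyme-fragment complementation luminescence after overnight detection; EC50 values reported.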

mouse TGR5 receptor = molecular target: T2, mouse TGR5 receptor (Mus musculus, UniProt Q80SS6); test: Mouse TGR5 HTRF cAMP production assay (HEK293-EBNA cells, Cisbio cAMP HiRange kit); format: cell-based; conditions: HEK293-EBNA cells overexpressing mouse TGR5, HTRF cAMP assay
T2 construct: host or cells: HEK293-EBNA (293 c18, ATCC CRL10852)
T2 sequence (Q80SS6 1-329): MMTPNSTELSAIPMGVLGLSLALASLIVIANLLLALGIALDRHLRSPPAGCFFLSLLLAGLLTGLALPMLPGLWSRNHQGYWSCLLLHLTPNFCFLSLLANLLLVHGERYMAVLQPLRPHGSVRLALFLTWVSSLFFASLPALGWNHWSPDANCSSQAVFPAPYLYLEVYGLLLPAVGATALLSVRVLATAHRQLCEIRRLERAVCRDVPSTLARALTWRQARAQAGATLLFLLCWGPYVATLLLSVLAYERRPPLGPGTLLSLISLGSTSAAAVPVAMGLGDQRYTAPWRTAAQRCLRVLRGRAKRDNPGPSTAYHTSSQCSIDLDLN
Procedure, shortened: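 HEK293-EBNA cells stably expressing mouse TGR5 (episomal vector) were suspended in serum-free DMEM with 500 μM IBMX and exposed to 12-point half-log compound dilutions for 1 h at room temperature. cAMP was detected by HTRF (d2-cAMP/anti-cAMP cryptate, 1 h, room temperature), giving EC50 from duplicates.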

Row | Compound | EC50 (human TGR5 receptor) [µM] | EC50 (mouse TGR5 receptor) [µM]
1 | O=C(O)CCC1CCN(c2cc(N3CC[C@H]3C(=O)NCCc3ccc(C(F)(F)F)cc3)nc(C(F)(F)F)n2)CC1 [Compound 232, (S)-3-(1-(2-(trifluoromethyl)-6-(2-((4-(trifluoromethyl)phenethyl)carbamoyl)azetidin-1-yl)pyrimidin-4-yl)piperidin-4-yl)propanoic acid] | < 0.1 | < 0.1
2 | COc1cc(C(F)(F)F)ccc1CCNC(=O)[C@@H]1CCN1c1cc(N2CCC(CCC(=O)O)CC2)nc(C(F)(F)F)n1 [Compound 239, (S)-3-(1-(6-(2-((2-methoxy-4-(trifluoromethyl)phenethyl)carbamoyl)azetidin-1-yl)-2-(trifluoromethyl)pyrimidin-4-yl)piperidin-4-yl)propanoic acid] | < 0.1 | < 0.1
3 | N#Cc1ccc(CCNC(=O)[C@@H]2CCN2c2cc(N3CCC(CCCC(=O)NCCS(=O)(=O)O)CC3)nc(C(F)(F)F)n2)cc1 [Compound 249, (S)-2-(4-(1-(6-(2-((4-cyanophenethyl)carbamoyl)azetidin-1-yl)-2-(trifluoromethyl)pyrimidin-4-yl)piperidin-4-yl)butanamido)ethanesulfonic acid] | < 0.1 | < 0.1
4 | N#Cc1ccc(CCNC(=O)[C@@H]2CCN2c2cc(N3CCC(CCCC(=O)NCS(=O)(=O)O)CC3)nc(C(F)(F)F)n2)cc1 [Compound 250, (S)-(4-(1-(6-(2-((4-cyanophenethyl)carbamoyl)azetidin-1-yl)-2-(trifluoromethyl)pyrimidin-4-yl)piperidin-4-yl)butanamido)methanesulfonic acid] | < 0.1 | < 0.1
5 | O=C(CCC1CCN(c2cc(N3CC[C@H]3C(=O)NCCc3ccc(C(F)(F)F)cc3)nc(C(F)(F)F)n2)CC1)NCS(=O)(=O)O [Compound 253, (S)-(3-(1-(2-(trifluoromethyl)-6-(2-((4-(trifluoromethyl)phenethyl)-carbamoyl)azetidin-1-yl)pyrimidin-4-yl)piperidin-4-yl)propanamido)-methanesulfonic acid] | < 0.1 | < 0.1
6 | COc1cc(C(F)(F)F)ccc1CCNC(=O)[C@@H]1CCN1c1cc(N2CCC(CCC(=O)NCCS(=O)(=O)O)CC2)nc(C(F)(F)F)n1 [Compound 259] | < 0.1 | < 0.1
7 | N#Cc1ccc(CCNC(=O)[C@@H]2CCN2c2cc(N3CCC(CCCC(=O)NC[C@@H](O)[C@H](O)[C@@H](O)[C@@H](O)CO)CC3)nc(C(F)(F)F)n2)cc1 [Compound 260, (S)—N-(4-cyanophenethyl)-1-(6-(4-(4-oxo-4-(((2R,3S,4S,5S)-2,3,4,5,6-pentahydroxyhexyl)amino)butyl)piperidin-1-yl)-2-(trifluoromethyl)pyrimidin-4-yl)azetidine-2-carboxamide] | < 0.1 | < 0.1
8 | N#Cc1ccc(CCNC(=O)[C@@H]2CCN2c2cc(N3CCC(CCCC(=O)NC[C@@H](O)CO)CC3)nc(C(F)(F)F)n2)cc1 [Compound 261, (S)-N-(4-cyanophenethyl)-1-(6-(4-(4-(((R)-2,3-dihydroxypropyl)amino)-4-oxobutyl)piperidin-1-yl)-2-(trifluoromethyl)pyrimidin-4-yl)azetidine-2-carboxamide] | < 0.1 | < 0.1
9 | N#Cc1ccc(CCNC(=O)[C@@H]2CCN2c2cc(N3CCC(CCNC(=O)NCCC(=O)O)CC3)nc(C(F)(F)F)n2)cc1 [Compound 268, (S)-3-(3-(2-(1-(6-(2-((4-cyanophenethyl)carbamoyl)azetidin-1-yl)-2-(trifluoromethyl)pyrimidin-4-yl)piperidin-4-yl)ethyl)ureido)propanoic acid] | < 0.1 | < 0.1
10 | N#Cc1ccc(CCNC(=O)[C@@H]2CCN2c2cc(N3CCC(CCNC(=O)NCCS(N)(=O)=O)CC3)nc(C(F)(F)F)n2)cc1 [Compound 269, (S)—N-(4-cyanophenethyl)-1-(6-(4-(2-(3-(2-sulfamoylethyl)ureido)ethyl)piperidin-1-yl)-2-(trifluoromethyl)pyrimidin-4-yl)azetidine-2-carboxamide] | < 0.1 | < 0.1
11 | N#Cc1ccc(CCNC(=O)[C@@H]2CCN2c2cc(N3CCC(CCNC(=O)NCS(=O)(=O)O)CC3)nc(C(F)(F)F)n2)cc1 [Compound 270, (S)-(3-(2-(1-(6-(2-((4-cyanophenethyl)carbamoyl)azetidin-1-yl)-2-(trifluoromethyl)pyrimidin-4-yl)piperidin-4-yl)ethyl)ureido)-methanesulfonic acid] | < 0.1 | < 0.1
12 | N#Cc1ccc(CCNC(=O)[C@@H]2CCN2c2cc(N3CCC(CCNC(=O)NCCS(=O)(=O)O)CC3)nc(C(F)(F)F)n2)cc1 [Compound 271, (S)-2-(3-(2-(1-(6-(2-((4-cyanophenethyl)carbamoyl)azetidin-1-yl)-2-(trifluoromethyl)pyrimidin-4-yl)piperidin-4-yl)ethyl)ureido)-ethanesulfonic acid] | < 0.1 | < 0.1
13 | N[C@@H](CS(=O)(=O)O)C(=O)NCCC1CCN(c2cc(N3CC[C@H]3C(=O)NCCc3ccc(C(F)(F)F)cc3)nc(C(F)(F)F)n2)CC1 [Compound 278, (R)-2-amino-3-oxo-3-((2-(1-(2-(trifluoromethyl)-6-((S)-2-((4-(trifluoromethyl)-phenethyl)carbamoyl)azetidin-1-yl)pyrimidin-4-yl)piperidin-4-yl)ethyl)amino)-propane-1-sulfonic acid] | < 0.1 | < 0.1
14 | N#Cc1ccc(CCNC(=O)[C@@H]2CCN2c2cc(N3CCC(CCCC(=O)NCCNC(=N)N)CC3)nc(C(F)(F)F)n2)cc1 [Compound 282, (S)—N-(4-cyanophenethyl)-1-(6-(4-(4-((2-guanidinoethyl)amino)-4-oxobutyl)piperidin-1-yl)-2-(trifluoromethyl)pyrimidin-4-yl)azetidine-2-carboxamide] | < 0.1 | < 0.1
15 | N#Cc1ccc(CCNC(=O)[C@@H]2CCN2c2cc(N3CCC(CCCC(=O)NCCCCNC(=N)N)CC3)nc(C(F)(F)F)n2)cc1 [Compound 283, (S)-N-(4-cyanophenethyl)-1-(6-(4-(4-((4-guanidinobutyl)amino)-4-oxobutyl)piperidin-1-yl)-2-(trifluoromethyl)pyrimidin-4-yl)azetidine-2-carboxamide] | < 0.1 | < 0.1
16 | N#Cc1ccc(CCNC(=O)[C@@H]2CCN2c2cc(N3CCC(CCCC(=O)NCCOCCNC(=N)N)CC3)nc(C(F)(F)F)n2)cc1 [Compound 284, (S)-N-(4-cyanophenethyl)-1-(6-(4-(4-((2-(2-guanidinoethoxy)-ethyl)amino)-4-oxobutyl)piperidin-1-yl)-2-(trifluoromethyl)pyrimidin-4-yl)azetidine-2-carboxamide] | < 0.1 | < 0.1
17 | N#Cc1ccc(CCNC(=O)[C@@H]2CCN2c2cc(N3CCC(CCNC(=N)N)CC3)nc(C(F)(F)F)n2)cc1 [Compound 285, (S)-N-(4-cyanophenethyl)-1-(6-(4-(2-guanidinoethyl)piperidin-1-yl)-2-(trifluoromethyl)pyrimidin-4-yl)azetidine-2-carboxamide] | < 0.1 | < 0.1
18 | N#Cc1ccc(CCNC(=O)[C@@H]2CCN2c2cc(N3CCC(CCNC(=O)NCCNC(=N)N)CC3)nc(C(F)(F)F)n2)cc1 [Compound 286, (S)-N-(4-cyanophenethyl)-1-(6-(4-(2-(3-(2-guanidinoethyl)-ureido)ethyl)piperidin-1-yl)-2-(trifluoromethyl)pyrimidin-4-yl)azetidine-2-carboxamide] | < 0.1 | < 0.1
19 | N#Cc1ccc(CCNC(=O)[C@@H]2CCN2c2cc(N3CCC(CCNC(=O)NCCOCCNC(=N)N)CC3)nc(C(F)(F)F)n2)cc1 [Compound 287, (S)-1-(6-(4-(1-amino-1-imino-9-oxo-5-oxa-2,8,10-triazadodecan-12-yl)piperidin-1-yl)-2-(trifluoromethyl)pyrimidin-4-yl)-N-(4-cyanophenethyl)azetidine-2-carboxamid] | < 0.1 | < 0.1
20 | CS(=O)(=O)NCCOCCNC(=O)NCCC1CCN(c2cc(N3CC[C@H]3C(=O)NCCc3ccc(C#N)cc3)nc(C(F)(F)F)n2)CC1 [Compound 292, (S)-N-(4-cyanophenethyl)-1-(6-(4-(2-(3-(2-(2-(methylsulfonylamino)-ethoxy)ethyl)ureido)ethyl)piperidin-1-yl)-2-(trifluoromethyl)pyrimidin-4-yl)azetidine-2-carboxamide] | < 0.1 | < 0.1
